In PubChem BioAssay (NCI):
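Grown in 96-well plates, cells were treated for 48 hours with each compound at five concentrations. Insufficient inhibition: endpoint recorded as highest concentration tested. TGI: total growth inhibition.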

Assays:
Test in all cases: NCI tumour cell line growth inhibition, 48 h
[1] = tested on: UACC-62 melanoma
[2] = tested on: U251 CNS
[3] = tested on: OVCAR-4 ovarian
[4] = tested on: BT-549 breast
[5] = tested on: SNB-19 CNS
[6] = tested on: HT29 colon
[7] = tested on: OVCAR-5 ovarian
[8] = tested on: UACC-257 melanoma
[9] = tested on: MALME-3M melanoma
[10] = tested on: HCT-15 colon
[11] = tested on: MOLT-4 leukemia
[12] = tested on: OVCAR-3 ovarian
[13] = tested on: SR leukemia
[14] = tested on: NCI-H460 lung
[15] = tested on: NCI/ADR-RES ovarian
[16] = tested on: IGROV1 ovarian
[17] = tested on: UO-31 renal
[18] = tested on: MDA-MB-231 breast
[19] = tested on: RXF 393 renal
[20] = tested on: OVCAR-8 ovarian
[21] = tested on: 786-0 renal
[22] = tested on: HCC-2998 colon
[23] = tested on: HOP-92 NSCLC
[24] = tested on: SN12C renal
[25] = tested on: HOP-62 NSCLC
[26] = tested on: NCI-H522 lung
[27] = tested on: LOX IMVI melanoma
[28] = tested on: T-47D breast
[29] = tested on: DU-145 prostate
[30] = tested on: HS 578T breast
[31] = tested on: SF-295 CNS
[32] = tested on: EKVX NSCLC
[33] = tested on: A498 renal
[34] = tested on: MDA-N
[35] = tested on: SNB-75 CNS
[36] = tested on: K-562 leukemia
[37] = tested on: PC-3 prostate
[38] = tested on: A549 NSCLC
[39] = tested on: ACHN renal
[40] = tested on: MDA-MB-435
[41] = tested on: HCT-116 colon
[42] = tested on: CAKI-1 renal
[43] = tested on: SF-268 CNS
[44] = tested on: NCI-H23 lung
[45] = tested on: KM12 colon
[46] = tested on: SW-620 colon
[47] = tested on: TK-10 renal
[48] = tested on: SK-MEL-2 melanoma
[49] = tested on: M14 melanoma
[50] = tested on: SK-MEL-28 melanoma
[51] = tested on: HL-60(TB) leukemia
[52] = tested on: COLO 205 colon
[53] = tested on: NCI-H226 lung
[54] = tested on: CCRF-CEM leukemia
[55] = tested on: SK-OV-3 ovarian
[56] = tested on: RPMI-8226 leukemia
[57] = tested on: MCF7 breast
[58] = tested on: SK-MEL-5 melanoma
[59] = tested on: SF-539 CNS

Measured: TGI

CCN(CC(=O)O)C(=O)c1cccnc1
not listed: [51] | [52] | [53] | [54] | [55] | [56] | [57] | [58] | [59]
> 100 µM: all other assays above

CC(=O)OCC1OC(OC2CC3C(C)(C)C(OC(C)=O)CC[C@]3(C)C3CCC45CC4(CCC5[C@@H](C)C[C@H](O)C(O)C(C)(C)O)[C@]23C)C(O)C(O)C1O (stereo partly specified)
not listed: [13]
> 10 µM: all other assays above

COc1ccc(-n2cnc3c2NC(C)(C)N=C3C(N)=O)c(OC)c1
not listed: [4] | [11] | [17] | [48]
> 100 µM: all other assays above

Cc1cccc(N(C(=O)Nc2ccc(Cl)c(Cl)c2)C2=NCC(C)S2)c1 (stereo unspecified)
45.8 µM: [58]
86.5 µM: [27]
80.3 µM: [47]
58.8 µM: [57]
not listed: [1] | [4] | [19] | [26] | [40] | [53]
> 100 µM: all other assays above
